As usually defined, the Km is the substrate concentration at which the rate is half of its maximum. Broadly, the kcat is the number of substrate molecules converted per active site and unit of time at saturation. Broadly, the Ki is the equilibrium dissociation constant of an inhibitor or competing ligand from its target. One may read the kcat/Km as the turnover number divided by the Michaelis constant.

Values joined by “and” are separate entries in the source; they are usually repeats but may differ in a detail not shown here. Equal entries are not always repeated. Where two headings read alike, the source gives them in different places.

The values below come from PMC2893389 (Biochemistry, 2010).

Series [1] addresses T1, WT rat cPEPCK (Rattus norvegicus, UniProt P07379).
T1 sequence (P07379 1-622): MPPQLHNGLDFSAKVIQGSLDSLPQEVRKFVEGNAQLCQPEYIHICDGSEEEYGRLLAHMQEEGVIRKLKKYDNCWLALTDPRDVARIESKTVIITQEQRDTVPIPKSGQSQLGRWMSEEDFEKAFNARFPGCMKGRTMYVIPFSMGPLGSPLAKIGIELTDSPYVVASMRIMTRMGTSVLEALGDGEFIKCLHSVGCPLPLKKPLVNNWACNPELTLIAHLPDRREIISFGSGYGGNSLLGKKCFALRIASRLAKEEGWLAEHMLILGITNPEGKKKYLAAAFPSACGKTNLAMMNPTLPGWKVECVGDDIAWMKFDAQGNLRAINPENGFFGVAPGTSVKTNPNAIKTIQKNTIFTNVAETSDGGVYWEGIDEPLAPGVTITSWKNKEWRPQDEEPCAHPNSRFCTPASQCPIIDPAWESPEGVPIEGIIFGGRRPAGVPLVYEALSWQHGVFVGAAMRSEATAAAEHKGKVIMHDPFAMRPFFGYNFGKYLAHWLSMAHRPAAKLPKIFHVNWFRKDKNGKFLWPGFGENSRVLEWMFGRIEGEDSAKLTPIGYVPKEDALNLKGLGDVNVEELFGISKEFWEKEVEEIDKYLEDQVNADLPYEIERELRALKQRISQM
Briefly: Assay B: PEP+GDP+CO2→OAA+GTP, coupled MDH assay. It is filed as biochemical. The conditions noted are these: Wild-type, 25 °C.

Series [2] concerns the target T2, A467G PEPCK (rat cPEPCK mutant) (Rattus norvegicus, UniProt P07379, A467G).
T2 sequence (P07379 1-622 A467G): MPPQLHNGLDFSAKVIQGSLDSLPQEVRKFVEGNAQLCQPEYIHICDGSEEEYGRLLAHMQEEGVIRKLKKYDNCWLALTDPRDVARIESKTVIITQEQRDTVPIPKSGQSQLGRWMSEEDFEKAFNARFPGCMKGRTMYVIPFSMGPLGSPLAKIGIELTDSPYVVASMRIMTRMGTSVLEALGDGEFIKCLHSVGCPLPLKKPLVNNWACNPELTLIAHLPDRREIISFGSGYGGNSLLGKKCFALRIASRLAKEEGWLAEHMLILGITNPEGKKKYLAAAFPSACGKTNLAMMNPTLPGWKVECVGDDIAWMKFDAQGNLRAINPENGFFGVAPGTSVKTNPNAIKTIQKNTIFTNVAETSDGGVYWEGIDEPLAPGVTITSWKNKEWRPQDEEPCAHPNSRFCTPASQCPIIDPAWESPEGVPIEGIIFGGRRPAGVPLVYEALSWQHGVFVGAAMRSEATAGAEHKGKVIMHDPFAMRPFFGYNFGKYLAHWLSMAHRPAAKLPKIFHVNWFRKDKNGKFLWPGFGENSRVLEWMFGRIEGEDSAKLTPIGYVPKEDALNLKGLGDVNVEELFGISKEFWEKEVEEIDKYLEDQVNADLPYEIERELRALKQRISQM
Briefly: Assay B: PEP+GDP+CO2→OAA+GTP, coupled MDH assay. In kind it is biochemical.

Series [3] deals with T2, A467G PEPCK (rat cPEPCK mutant). Nature of the series: Assay A: OAA+GTP→PEP+CO2+GDP, coupled PK/LDH assay. It is filed as biochemical.
The target in series [4] is T1, WT rat cPEPCK. Nature of the series: Assay A: OAA+GTP→PEP+CO2+GDP, coupled PK/LDH assay. It is filed as biochemical.
Series [5] addresses T1, WT rat cPEPCK. Nature of the series: Assay C: OAA+GTP→pyruvate+GTP+CO2. It is filed as biochemical. The conditions noted are these: WT PEPCK; GTPγS in place of GTP.
The target of series [6] is T2, A467G PEPCK (rat cPEPCK mutant). Briefly: Assay D: OAA+GDP→pyruvate+GDP+CO2. It is filed as biochemical.
Series [7] shares this target. Briefly: Inhibitor assays with substrate analogues. The conditions noted are these: for change in affinity, A467G vs WT: from Ki values of the inhibition experiments.
In series [8] the target is T1, WT rat cPEPCK. Nature of the series: Inhibitor assays with substrate analogues.
The target of series [9] is PEPCK. The conditions noted are these: pyruvate only weakly associates with PEPCK; cited from earlier work.
Substrate in series [10]: O=C(O)CC(=O)C(=O)O
Briefly: purified protein, by the assay type. In kind it is biochemical, rat. The conditions noted are these: OAA + GDP → Pyruvate + GDP + CO2, 25 °C.

Where [11] appears, read: WT PEPCK, slow substrate GTPγS in place of GTP, OAA→PEP.

For `O=C=O` [CO2], the Km worked out at 1190 ± 109 µM in [1] (labelled substrate varied) and 814 ± 98 µM in series [2] (A467G, PEP + CO2 + GDP → OAA + GTP, 25 °C, labelled substrate varied).

With `Nc1nc2c(ncn2[C@@H]2O[C@H](COP(=O)(O)OP(=O)(O)O)[C@@H](O)[C@H]2O)c(=O)[nH]1` [GDP, guanosine-5′-diphosphate], the “kcat/KM of A467G as % of WT” value in [2] (assay B, PEP→OAA) was 3%.

Take `Nc1nc2c(ncn2[C@@H]2O[C@H](COP(=O)(O)OP(=O)(O)OP(=O)(O)O)[C@@H](O)[C@H]2O)c(=O)[nH]1` [GTP, guanosine-5′-triphosphate]: in [3] (assay A, OAA→PEP), the “change in KM, A467G vs WT (factor)” value is given as 1.4 and the “decrease in kcat/KM, A467G vs WT” value was “less than a factor of three”.

`Nc1nc2c(ncn2[C@@H]2O[C@H](COP(=O)(O)OP(=O)(O)OP(O)(O)=S)[C@@H](O)[C@H]2O)c(=O)[nH]1` [GTPγS, guanosine 5′-O-[gamma-thio]triphosphate]: in series [4] (setting [11]), the Km was 39 µM and the kcat was 13 s⁻¹. The “pyruvate formation during the OAA→PEP reaction” value in series [5] is “did not observe any pyrvuate formation”.

On to `O=C(O)CC(=O)C(=O)O` [OAA, oxaloacetic acid], for which the “efficiency of WT relative to A467G at catalyzing decarboxylation of OAA” value in series [6] is reported as 20 fold. In [3] (assay A, OAA→PEP), the “kcat/KM of A467G as % of WT” value was 1.9% and 2%. For the same molecule, in series [3] (assay A, OAA→PEP, higher in A467G), the “KM of A467G relative to WT” value is 14 fold.

As for `C=C(OP(=O)(O)O)C(=O)O` [PEP, phosphoenolpyruvate], in series [2] (assay B, PEP→OAA), the “KM of A467G as % of WT” value is 21% and ~ 21%; the “reduction in catalytic efficiency of A467G relative to WT” value was “factor of four”.

With `O=C(O)COP(=O)(O)O` [PGA, 2-phosphoglycolate], in [7], the “change in affinity, A467G vs WT” value was “increases by less than a factor of two”. In series [8] (Wild-type, assay B, against PEP, 25 °C), the Ki worked out at 2530 ± 13 µM.

On to `O=C(O)C(=O)O` [oxalate], for which, in series [7], the “change in affinity, A467G vs WT” value is listed as “approximately a factor of eight”. In addition, in series [7] (from oxalate Ki, extrapolated to the enolate intermediate), the “loss in binding energy / decreased stabilization in A467G vs WT” value is listed as ~ 5.3 kJ mol^−1. The molecule also came in with a Ki in [8] of 106 ± 6 µM.

`CC(=O)C(=O)O` [pyruvate]: the Ki in series [9] is 9000 µM.

Consider `O=C(O)C(=O)CS(=O)(=O)O` [βSP, 3-sulfopyruvate], for which the “change in affinity, A467G vs WT” value in series [7] is reported as “factor of approximately two”. This molecule also gave a Ki in series [8] (Wild-type, assay A, against OAA, competitive (slope) Ki, 25 °C) of 26 ± 1 µM.

B1: WT rat cPEPCK (Rattus norvegicus) (protein)
chain: MPPQLHNGLDFSAKVIQGSLDSLPQEVRKFVEGNAQLCQPEYIHICDGSEEEYGRLLAHMQEEGVIRKLKKYDNCWLALTDPRDVARIESKTVIITQEQRDTVPIPKSGQSQLGRWMSEEDFEKAFNARFPGCMKGRTMYVIPFSMGPLGSPLAKIGIELTDSPYVVASMRIMTRMGTSVLEALGDGEFIKCLHSVGCPLPLKKPLVNNWACNPELTLIAHLPDRREIISFGSGYGGNSLLGKKCFALRIASRLAKEEGWLAEHMLILGITNPEGKKKYLAAAFPSACGKTNLAMMNPTLPGWKVECVGDDIAWMKFDAQGNLRAINPENGFFGVAPGTSVKTNPNAIKTIQKNTIFTNVAETSDGGVYWEGIDEPLAPGVTITSWKNKEWRPQDEEPCAHPNSRFCTPASQCPIIDPAWESPEGVPIEGIIFGGRRPAGVPLVYEALSWQHGVFVGAAMRSEATAAAEHKGKVIMHDPFAMRPFFGYNFGKYLAHWLSMAHRPAAKLPKIFHVNWFRKDKNGKFLWPGFGENSRVLEWMFGRIEGEDSAKLTPIGYVPKEDALNLKGLGDVNVEELFGISKEFWEKEVEEIDKYLEDQVNADLPYEIERELRALKQRISQM
For the molecule B1, the kcat in series [1] worked out at 19 ± 0.8 s⁻¹. Also, in series [10] (other: Wild-type), the Km stood at 117 ± 11 µM, the kcat was 2.3 ± 0.1 s⁻¹ and the kcat/Km is 20000 M⁻¹ s⁻¹. Further, the catalytic constant (kcat) in series [4] (Wild-type, OAA + GTP → PEP + GDP + CO2, 25 °C) was found to be 54 ± 0.2 s⁻¹.

B2: A467G PEPCK (rat cPEPCK mutant) (Rattus norvegicus; A467G) (protein)
chain: MPPQLHNGLDFSAKVIQGSLDSLPQEVRKFVEGNAQLCQPEYIHICDGSEEEYGRLLAHMQEEGVIRKLKKYDNCWLALTDPRDVARIESKTVIITQEQRDTVPIPKSGQSQLGRWMSEEDFEKAFNARFPGCMKGRTMYVIPFSMGPLGSPLAKIGIELTDSPYVVASMRIMTRMGTSVLEALGDGEFIKCLHSVGCPLPLKKPLVNNWACNPELTLIAHLPDRREIISFGSGYGGNSLLGKKCFALRIASRLAKEEGWLAEHMLILGITNPEGKKKYLAAAFPSACGKTNLAMMNPTLPGWKVECVGDDIAWMKFDAQGNLRAINPENGFFGVAPGTSVKTNPNAIKTIQKNTIFTNVAETSDGGVYWEGIDEPLAPGVTITSWKNKEWRPQDEEPCAHPNSRFCTPASQCPIIDPAWESPEGVPIEGIIFGGRRPAGVPLVYEALSWQHGVFVGAAMRSEATAGAEHKGKVIMHDPFAMRPFFGYNFGKYLAHWLSMAHRPAAKLPKIFHVNWFRKDKNGKFLWPGFGENSRVLEWMFGRIEGEDSAKLTPIGYVPKEDALNLKGLGDVNVEELFGISKEFWEKEVEEIDKYLEDQVNADLPYEIERELRALKQRISQM
Consider B2, for which the kcat in [2] (A467G, PEP + CO2 + GDP → OAA + GTP, 25 °C) is 1 ± 0.1 s⁻¹; in series [10] (other: A467G), 1.3 ± 0.1 s⁻¹; in [3] (A467G, OAA + GTP → PEP + GDP + CO2, 25 °C), 14 ± 0.1 s⁻¹. In [10] (other: A467G), the Km was 970 ± 118 µM. The catalytic efficiency (kcat/Km) in series [10] (other: A467G) was 1000 M⁻¹ s⁻¹.
